{"source": "patent US20230089267A1", "about": "“Compositions and Methods For Reducing Immune Intolerance and Treating Autoimmune Disorders” (Lapix Therapeutics, Inc., priority 2021, published 2023)", "key": {"[1]": {"test_system": "passive MG model", "assay": "Passive myasthenia gravis model, adoptive transfer to RAG2−/− mice", "type": "in vivo", "settings": "by day 10, SC daily for ten days", "procedure": "In this passive MG model in B6 mice, donor mice (n=20, aged 6-8 weeks) were immunized with complete Freund's adjuvant (CFA) and nicotinic acetylcholine receptor (AChR) emulsion weekly for four weeks. Seven days after the last immunization, splenocytes were collected, and 10^6 cells/mouse were transferred to RAG2^−/− mice. The recipient mice (n=10/group) were treated one day after adoptive transfer with prednisone (1 μg/mouse) SC daily for ten days after disease onset or Compound 2 3 μg SC daily for ten days after disease onset, or were left untreated. Minimal manifestation of disease was defined as a return to a clinical score of 1 after an exacerbation (score 2 or higher). Time to return to minimal score was logged, and the likelihood of return was plotted for untreated animals, and standard of care (SOC; prednisone)- and Compound 2-treated animals."}, "[2]": {"test_system": "MOG35-55-induced murine EAE model", "assay": "MOG35-55-induced murine EAE model, Compound 2 versus Compound 8 (Example 12)", "type": "in vivo, mice", "settings": "3 μg/mouse/day SC, after ten days of treatment", "procedure": "Mice were immunized with 100 μg MOG35-55 emulsified with CFA and pertussis toxin, as described in Example 4. At disease onset (clinical score 1), mice were randomized into two treatment groups, and received 3 μg/mouse/day SC of either Compound 2 or Compound 8."}, "[3]": {"test_system": "pristane-induced lupus model", "assay": "Pristane-induced lupus model", "type": "in vivo, mice", "settings": "3 μg SC daily, interim data", "procedure": "Four-week old female Balb/c mice received 0.5 ml IP injection of pristane (Sigma Aldrich). Eight weeks post pristane injection, all mice tested positive for anti-dsDNA antibody titers (FUJIFILM Wako Pure Chemical Corporation), indicating systemic disease onset. On Day 60, mice were randomized to treatment (n=12) (Compound 2, 3 μg SC daily) or control group (n=11), and treatment was started. Mice were monitored daily for cutaneous lupus symptoms by checking for the appearance of skin lesions."}, "[4]": {"test_system": "DSS-induced IBD model", "assay": "Dextran sulfate sodium (DSS)-induced IBD model", "type": "in vivo, mice", "settings": "30 μg SC for 7 days then 3 μg SC for 7 days, both disease cycles", "procedure": "IBD was induced in 6-8-week-old female C57/B6 mice by adding 3% DSS (Sigma Aldrich) in their drinking water for 3 days on 2 different occasions (days 0, 1, and 2 of the induction phase and days 11, 12, and 13 of the re-exposure phase). One group (n=5) was treated with Compound 2 (30 μg SC for 7 days) during the disease induction phase followed by a lower dose of Compound 2 (3 μg SC for 7 days) during the disease re-exposure phase. […] Mice body weight was monitored daily starting on day 0."}}, "data": [{"smiles": "N[C@@H](CNC(=O)Cc1ccc(OCc2cccc3ccccc23)cc1)C(=O)O", "note": "[Compound 2, (S)-2-Amino-3-(2-(4-(naphthalen-1-ylmethoxy)phenyl)acetamido)propanoic acid]", "values": [{"measurement": "animals returned to minimal manifestation of disease (score 1)", "setting": "[1]", "value": 63, "unit": "%"}, {"measurement": "mean clinical score, comparison of the two groups", "setting": "[2]", "value": "no statistical difference"}, {"measurement": "incidence of cutaneous lupus", "setting": "[3]; after two weeks of treatment", "value": 8, "unit": "%"}, {"measurement": "onset of cutaneous symptoms compared to untreated control mice", "setting": "[3]", "value": "delayed by two days"}, {"measurement": "body weight change", "setting": "[4]", "value": "less weight loss and more rapid recovery than untreated animals"}]}]}
